Measurements from PubChem BioAssay AID1259407 (Chemical Carcinogenesis Research Information System (CCRIS), 2018).
Active and inactive are the calls of the source. No rule for the calls is given here.

Tested on: CCRIS mutagenicity, Ames/micronucleus/aberration tests
Test: CCRIS mutagenicity studies
Settings: Test System: AMES SALMONELLA TYPHIMURIUM
[1] = Strain/Indicator: TA98, Metabolic Activation: NONE, Method: PREINCUBATION
[2] = Strain/Indicator: TA100, Metabolic Activation: NONE, Method: PREINCUBATION

Measured: mutagenic call

CC(=O)Nc1ccc([N+](=O)[O-])cc1
inactive: Strain/Indicator: TA98(NR), Metabolic Activation: NONE, Method: STANDARD PLATE inactive; negative | Strain/Indicator: TA98(NR), Metabolic Activation: RAT, LIVER, S-9, AROCLOR 1254, Method: STANDARD PLATE inactive; negative | Strain/Indicator: TA98, Metabolic Activation: NONE, Method: STANDARD PLATE inactive; negative | Strain/Indicator: TA98, Metabolic Activation: RAT, LIVER, S-9, AROCLOR 1254, Method: STANDARD PLATE inactive; negative | Strain/Indicator: TA1538(NR), Metabolic Activation: NONE, Method: STANDARD PLATE inactive; negative | Strain/Indicator: TA1538(NR), Metabolic Activation: RAT, LIVER, S-9, AROCLOR 1254, Method: STANDARD PLATE inactive; negative | Strain/Indicator: TA1538, Metabolic Activation: NONE, Method: STANDARD PLATE inactive; negative | Strain/Indicator: TA1538, Metabolic Activation: RAT, LIVER, S-9, AROCLOR 1254, Method: STANDARD PLATE inactive; negative

C1CN2CCN1CC2
inactive: [1] inactive; negative | Strain/Indicator: TA98, Metabolic Activation: RAT, LIVER, S-9, PCB, Method: PREINCUBATION inactive; negative | [2] inactive; negative | Strain/Indicator: TA100, Metabolic Activation: RAT, LIVER, S-9, PCB, Method: PREINCUBATION inactive; negative

C=CCc1ccc(OC)c(OC)c1
inactive: Strain/Indicator: TA98, Metabolic Activation: HAMSTER, LIVER, S-9, AROCLOR 1254, Method: PREINCUBATION inactive; negative | [1] inactive; negative | Strain/Indicator: TA98, Metabolic Activation: RAT, LIVER, S-9, AROCLOR 1254, Method: PREINCUBATION inactive; negative | Strain/Indicator: TA100, Metabolic Activation: HAMSTER, LIVER, S-9, AROCLOR 1254, Method: PREINCUBATION inactive; negative | [2] inactive; negative | Strain/Indicator: TA100, Metabolic Activation: RAT, LIVER, S-9, AROCLOR 1254, Method: PREINCUBATION inactive; negative | Strain/Indicator: TA1535, Metabolic Activation: HAMSTER, LIVER, S-9, AROCLOR 1254, Method: PREINCUBATION inactive; negative | Strain/Indicator: TA1535, Metabolic Activation: NONE, Method: PREINCUBATION inactive; negative | Strain/Indicator: TA1535, Metabolic Activation: RAT, LIVER, S-9, AROCLOR 1254, Method: PREINCUBATION inactive; negative | Strain/Indicator: TA1537, Metabolic Activation: HAMSTER, LIVER, S-9, AROCLOR 1254, Method: PREINCUBATION inactive; negative | Strain/Indicator: TA1537, Metabolic Activation: NONE, Method: PREINCUBATION inactive; negative | Strain/Indicator: TA1537, Metabolic Activation: RAT, LIVER, S-9, AROCLOR 1254, Method: PREINCUBATION inactive; negative
